ChEMBL document CHEMBL4699440, “Comprehensive review on the anti-bacterial activity of 1,2,3-triazole hybrids” (Eur J Med Chem, 2019)
Converted amounts (≈) assume the structure as drawn. Each block holds one molecule with its values, some of them ahead of it.

Experiments:
Format in all cases: functional
Escherichia coli [1] = assay: Antibacterial activity against Escherichia coli ATCC 25922 incubated for 24 hrs by tube dilution method
Klebsiella pneumoniae [2] = assay: Antibacterial activity against Klebsiella pneumoniae ATCC 15380 incubated for 24 hrs by tube dilution method
Pseudomonas aeruginosa [3] = assay: Antibacterial activity against Pseudomonas aeruginosa ATCC 12454 incubated for 24 hrs by tube dilution method
Staphylococcus aureus [4] = assay: Antibacterial activity against Staphylococcus aureus ATCC 25923 incubated for 24 hrs by tube dilution method
Streptococcus pyogenes = assay: Antibacterial activity against Streptococcus pyogenes ATCC 35552 incubated for 24 hrs by tube dilution method
Pseudomonas aeruginosa [5] = assay: Antibacterial activity against Pseudomonas aeruginosa 12 incubated for 20 hrs by agar dilution method
Escherichia coli [6] = assay: Antibacterial activity against Escherichia coli NIHJ JC2 incubated for 20 hrs by agar dilution method
Staphylococcus aureus [7] = assay: Antibacterial activity against Staphylococcus aureus 209P JC1 incubated for 20 hrs by agar dilution method
Streptococcus pneumoniae = assay: Antibacterial activity against Streptococcus pneumoniae RCMB 010010 by broth dilution method
Bacillus subtilis = assay: Antibacterial activity against Bacillus subtilis RCMB 010067 by broth dilution method
Staphylococcus aureus [8] = assay: Antibacterial activity against Staphylococcus aureus RCMB 010025 by broth dilution method
Pseudomonas aeruginosa [9] = assay: Antibacterial activity against Pseudomonas aeruginosa RCMB 010043 by broth dilution method
Escherichia coli [10] = assay: Antibacterial activity against Escherichia coli RCMB 010052 by broth dilution method
Klebsiella pneumoniae [11] = assay: Antibacterial activity against Klebsiella pneumonia RCMB 010058 by broth dilution method
Bacillus cereus [12] = assay: Antibacterial activity against Bacillus cereus ATCC 10876 incubated for 24 hrs by microdilution method
Enterococcus faecalis = assay: Antibacterial activity against Enterococcus faecalis ATCC 29212 incubated for 24 hrs by microdilution method
Staphylococcus aureus [13] = assay: Antibacterial activity against Staphylococcus aureus ATCC 25923 incubated for 24 hrs by microdilution method
Proteus mirabilis = assay: Antibacterial activity against Proteus mirabilis ATCC 35659 incubated for 24 hrs by microdilution method
Escherichia coli [14] = assay: Antibacterial activity against Escherichia coli ATCC 25922 incubated for 24 hrs by microdilution method
Pseudomonas aeruginosa [15] = assay: Antibacterial activity against Pseudomonas aeruginosa ATCC 27853 incubated for 24 hrs by microdilution method
Candida albicans = assay: Antifungal activity against Candida albicans ATCC 50193 incubated for 24 hrs by microdilution method
Aspergillus brasiliensis = assay: Antifungal activity against Aspergillus brasiliensis ATCC 16404 incubated for 24 hrs by microdilution method
Staphylococcus aureus [16] = assay: Antibacterial activity against Staphylococcus aureus ATCC 29737 incubated for 24 hrs
Micrococcus luteus = assay: Antibacterial activity against Micrococcus Luteus ATCC 398 incubated for 24 hrs
Bacillus cereus [17] = assay: Antibacterial activity against Bacillus cereus ATCC 6630 incubated for 24 hrs
Escherichia coli [18] = assay: Antibacterial activity against Escherichia coli NCIM 2256 incubated for 24 hrs
Pseudomonas fluorescens = assay: Antibacterial activity against Pseudomonas fluorescens NCIM 2173 incubated for 24 hrs
[19] = system: Sphingomonas paucimobilis; assay: Antibacterial activity against Flavobacterium devorans ATCC 10829 incubated for 24 hrs
Aspergillus niger = assay: Antifungal activity against Aspergillus niger NCIM 1196 incubated for 48 hrs
Penicillium chrysogenum = assay: Antifungal activity against Penicillium chrysogenum NCIM 723 incubated for 48 hrs
Curvularia lunata = assay: Antifungal activity against Curvularia lunata NCIM 1131 incubated for 48 hrs

SMILES: NCC1CCN(c2c(F)c3c(c(=O)c(C(=O)O)cn3C3CC3)c3[nH]nnc23)C1 (centres undefined)
MIC (Pseudomonas aeruginosa [5]): 0.05 µg/mL (≈ 0.129 µM)
MIC (Escherichia coli [6]): 0.05 µg/mL (≈ 0.129 µM)
MIC (Staphylococcus aureus [7]): 0.05 µg/mL (≈ 0.129 µM)

SMILES: OCC(O)CSc1nnc(-c2nnn(-c3ccccc3Cl)c2-c2nnc(SCC(O)CO)o2)o1 (centres undefined)
MIC (Streptococcus pneumoniae): 4 µg/mL (≈ 7.58 µM)
MIC (Bacillus subtilis): 4 µg/mL (≈ 7.58 µM)
MIC (Staphylococcus aureus [8]): 4 µg/mL (≈ 7.58 µM)
MIC (Pseudomonas aeruginosa [9]): 4 µg/mL (≈ 7.58 µM)
MIC (Escherichia coli [10]): 4 µg/mL (≈ 7.58 µM)
MIC (Klebsiella pneumoniae [11]): 4 µg/mL (≈ 7.58 µM)

SMILES: NC1CCN(c2c(F)c3c(c(=O)c(C(=O)O)cn3C3CC3)c3[nH]nnc23)C1 (centres undefined)
MIC (Pseudomonas aeruginosa [5]): 0.05 µg/mL (≈ 0.134 µM)
MIC (Escherichia coli [6]): 0.05 µg/mL (≈ 0.134 µM)
MIC (Staphylococcus aureus [7]): 0.05 µg/mL (≈ 0.134 µM)

SMILES: NC1CCN(c2c(Cl)c3c(c(=O)c(C(=O)O)cn3C3CC3)c3[nH]nnc23)C1 (centres undefined)
MIC (Pseudomonas aeruginosa [5]): 0.05 µg/mL (≈ 0.129 µM)
MIC (Escherichia coli [6]): 0.05 µg/mL (≈ 0.129 µM)
MIC (Staphylococcus aureus [7]): 0.05 µg/mL (≈ 0.129 µM)

SMILES: CCCCCCCCn1nnc(-c2n[nH]c(=S)n2N)c1-c1n[nH]c(=S)n1N
MIC (Bacillus cereus [12]): 1 µg/mL (≈ 2.44 µM)
MIC (Enterococcus faecalis): 1 µg/mL (≈ 2.44 µM)
MIC (Staphylococcus aureus [13]): 1 µg/mL (≈ 2.44 µM)
MIC (Proteus mirabilis): 1 µg/mL (≈ 2.44 µM)
MIC (Escherichia coli [14]): 1 µg/mL (≈ 2.44 µM)
MIC (Pseudomonas aeruginosa [15]): 1 µg/mL (≈ 2.44 µM)
MIC (Candida albicans): 1 µg/mL (≈ 2.44 µM)
MIC (Aspergillus brasiliensis): 1 µg/mL (≈ 2.44 µM)

SMILES: OCCCSc1nnc(-c2nnn(-c3ccccc3Cl)c2-c2nnc(SCCCO)o2)o1
MIC (Streptococcus pneumoniae): 4 µg/mL (≈ 8.06 µM)
MIC (Bacillus subtilis): 4 µg/mL (≈ 8.06 µM)
MIC (Staphylococcus aureus [8]): 4 µg/mL (≈ 8.06 µM)
MIC (Pseudomonas aeruginosa [9]): 4 µg/mL (≈ 8.06 µM)
MIC (Escherichia coli [10]): 4 µg/mL (≈ 8.06 µM)
MIC (Klebsiella pneumoniae [11]): 4 µg/mL (≈ 8.06 µM)

SMILES: CC1CCN(c2c(F)c3c(c(=O)c(C(=O)O)cn3C3CC3)c3[nH]nnc23)CC1
MIC (Pseudomonas aeruginosa [5]): 0.05 µg/mL (≈ 0.13 µM)
MIC (Escherichia coli [6]): 0.05 µg/mL (≈ 0.13 µM)
MIC (Staphylococcus aureus [7]): 0.05 µg/mL (≈ 0.13 µM)

SMILES: CCCCCCCCCCCCn1nnc(-c2n[nH]c(=S)n2N)c1-c1n[nH]c(=S)n1N
MIC (Bacillus cereus [12]): 1 µg/mL (≈ 2.15 µM)
MIC (Enterococcus faecalis): 1 µg/mL (≈ 2.15 µM)
MIC (Staphylococcus aureus [13]): 1 µg/mL (≈ 2.15 µM)
MIC (Proteus mirabilis): 1 µg/mL (≈ 2.15 µM)
MIC (Escherichia coli [14]): 1 µg/mL (≈ 2.15 µM)
MIC (Pseudomonas aeruginosa [15]): 1 µg/mL (≈ 2.15 µM)
MIC (Candida albicans): 1 µg/mL (≈ 2.15 µM)
MIC (Aspergillus brasiliensis): 1 µg/mL (≈ 2.15 µM)

SMILES: CC1CCN(c2cc3c(c(=O)c(C(=O)O)cn3C3CC3)c3[nH]nnc23)CC1
MIC (Pseudomonas aeruginosa [5]): 0.05 µg/mL (≈ 0.136 µM)
MIC (Escherichia coli [6]): 0.05 µg/mL (≈ 0.136 µM)
MIC (Staphylococcus aureus [7]): 0.05 µg/mL (≈ 0.136 µM)

SMILES: O=C(O)c1cn(C2CC2)c2c(F)c(N3CCCCC3)c3nn[nH]c3c2c1=O
MIC (Pseudomonas aeruginosa [5]): 0.05 µg/mL (≈ 0.135 µM)
MIC (Escherichia coli [6]): 0.05 µg/mL (≈ 0.135 µM)
MIC (Staphylococcus aureus [7]): 0.05 µg/mL (≈ 0.135 µM)

Results, then the molecule that gave them:

MIC (Escherichia coli [1]): 5.5 µg/mL (≈ 11.7 µM)
MIC (Klebsiella pneumoniae [2]): 5.5 µg/mL (≈ 11.7 µM)
MIC (Pseudomonas aeruginosa [3]): 5.5 µg/mL (≈ 11.7 µM)
MIC (Staphylococcus aureus [4]): 5.5 µg/mL (≈ 11.7 µM)
MIC (Streptococcus pyogenes): 5.5 µg/mL (≈ 11.7 µM)
SMILES: O=Cc1cn(-c2ccccc2)nc1-c1ccccc1OCc1cn(Cc2cccc(Cl)c2)nn1

MIC (Escherichia coli [1]): 5.5 µg/mL (≈ 11.7 µM)
MIC (Klebsiella pneumoniae [2]): 5.5 µg/mL (≈ 11.7 µM)
MIC (Pseudomonas aeruginosa [3]): 5.5 µg/mL (≈ 11.7 µM)
MIC (Staphylococcus aureus [4]): 5.5 µg/mL (≈ 11.7 µM)
MIC (Streptococcus pyogenes): 5.5 µg/mL (≈ 11.7 µM)
SMILES: O=Cc1cn(-c2ccccc2)nc1-c1cc(Cl)ccc1OCc1cn(Cc2ccccc2)nn1

MIC (Bacillus cereus [12]): 2 µg/mL (≈ 3.25 µM)
MIC (Enterococcus faecalis): 2 µg/mL (≈ 3.25 µM)
MIC (Staphylococcus aureus [13]): 2 µg/mL (≈ 3.25 µM)
MIC (Proteus mirabilis): 2 µg/mL (≈ 3.25 µM)
MIC (Escherichia coli [14]): 2 µg/mL (≈ 3.25 µM)
MIC (Pseudomonas aeruginosa [15]): 2 µg/mL (≈ 3.25 µM)
MIC (Candida albicans): 2 µg/mL (≈ 3.25 µM)
MIC (Aspergillus brasiliensis): 2 µg/mL (≈ 3.25 µM)
SMILES: CCCCCCCCCCCCCCn1nnc(-c2n[nH]c(=S)n2-c2ccccc2)c1-c1n[nH]c(=S)n1-c1ccccc1

MIC (Streptococcus pneumoniae): 4 µg/mL (≈ 8.55 µM)
MIC (Bacillus subtilis): 4 µg/mL (≈ 8.55 µM)
MIC (Staphylococcus aureus [8]): 4 µg/mL (≈ 8.55 µM)
MIC (Pseudomonas aeruginosa [9]): 4 µg/mL (≈ 8.55 µM)
MIC (Escherichia coli [10]): 4 µg/mL (≈ 8.55 µM)
MIC (Klebsiella pneumoniae [11]): 4 µg/mL (≈ 8.55 µM)
SMILES: OCCSc1nnc(-c2nnn(-c3ccccc3Cl)c2-c2nnc(SCCO)o2)o1

MIC (Escherichia coli [1]): 5.5 µg/mL (≈ 11.5 µM)
MIC (Klebsiella pneumoniae [2]): 5.5 µg/mL (≈ 11.5 µM)
MIC (Pseudomonas aeruginosa [3]): 5.5 µg/mL (≈ 11.5 µM)
MIC (Staphylococcus aureus [4]): 5.5 µg/mL (≈ 11.5 µM)
MIC (Streptococcus pyogenes): 5.5 µg/mL (≈ 11.5 µM)
SMILES: O=Cc1cn(-c2ccccc2)nc1-c1ccccc1OCc1cn(Cc2ccc(C(=O)O)cc2)nn1

MIC (Escherichia coli [1]): 5.5 µg/mL (≈ 12.2 µM)
MIC (Klebsiella pneumoniae [2]): 5.5 µg/mL (≈ 12.2 µM)
MIC (Pseudomonas aeruginosa [3]): 5.5 µg/mL (≈ 12.2 µM)
MIC (Staphylococcus aureus [4]): 5.5 µg/mL (≈ 12.2 µM)
MIC (Streptococcus pyogenes): 5.5 µg/mL (≈ 12.2 µM)
SMILES: Cc1ccc(OCc2cn(Cc3ccccc3)nn2)c(-c2nn(-c3ccccc3)cc2C=O)c1

MIC (Escherichia coli [1]): 6.5 µg/mL (≈ 14 µM)
MIC (Klebsiella pneumoniae [2]): 6.5 µg/mL (≈ 14 µM)
MIC (Pseudomonas aeruginosa [3]): 6.5 µg/mL (≈ 14 µM)
MIC (Staphylococcus aureus [4]): 6.5 µg/mL (≈ 14 µM)
MIC (Streptococcus pyogenes): 6.5 µg/mL (≈ 14 µM)
SMILES: COc1ccc(Cn2cc(COc3ccccc3-c3nn(-c4ccccc4)cc3C=O)nn2)cc1

MIC (Escherichia coli [1]): 5.5 µg/mL (≈ 11.4 µM)
MIC (Klebsiella pneumoniae [2]): 5.5 µg/mL (≈ 11.4 µM)
MIC (Pseudomonas aeruginosa [3]): 5.5 µg/mL (≈ 11.4 µM)
MIC (Staphylococcus aureus [4]): 5.5 µg/mL (≈ 11.4 µM)
MIC (Streptococcus pyogenes): 5.5 µg/mL (≈ 11.4 µM)
SMILES: Cc1ccc(OCc2cn(Cc3cccc(Cl)c3)nn2)c(-c2nn(-c3ccccc3)cc2C=O)c1

MIC (Staphylococcus aureus [16]): 2 µg/mL (≈ 5.24 µM)
MIC (Micrococcus luteus): 2 µg/mL (≈ 5.24 µM)
MIC (Bacillus cereus [17]): 2 µg/mL (≈ 5.24 µM)
MIC (Escherichia coli [18]): 2 µg/mL (≈ 5.24 µM)
MIC (Pseudomonas fluorescens): 2 µg/mL (≈ 5.24 µM)
MIC [19]: 2 µg/mL (≈ 5.24 µM)
MIC (Aspergillus niger): 2 µg/mL (≈ 5.24 µM)
MIC (Penicillium chrysogenum): 2 µg/mL (≈ 5.24 µM)
MIC (Curvularia lunata): 2 µg/mL (≈ 5.24 µM)
SMILES: Cc1cc(OCc2cn(Cc3ccc(Cl)cc3)nn2)cc2oc(=O)ccc12
